Where two headings read alike, the source gives them in different places.
Tests used:
[1] = test system: JNK; settings: rat adipocytes and L6 myotubes; cited from earlier work
[2] = test system: MAPK; settings: rat adipocytes and L6 myotubes; cited from earlier work
[3] = target: MSK1 (Homo sapiens, UniProt O75582); settings: cited from earlier work
[4] = test system: M481 metastatic melanoma cells; assay: M481 melanoma xenograft tumor growth in NSG mice (i.p. agents, PLX 4720 chow); type: in vivo
Experimental: M481 metastatic melanoma cells were implanted in s.c. tissue on right flanks of NSG mice. […] For PLX4720 treatment mice were switched to either a chow diet containing 417 mg/kg PLX4720 or the control chow containing no compound. Tumors were measured every 2-3 day with calipers. Mean±SD is reported (* P<0.05, *** P<0.0005, ns: not significant; two-tailed Student's t test). FIG. 1B, Representative bioluminescence images of melanomas at day 14.
M481 metastatic melanoma cells were implanted in s.c. tissue on right flanks of NSG mice. When tumors became palpable mice were i.p. injected with RO 31-8220 (3 mg/kg) or DMSO. […] Tumors were measured every 2-3 day with calipers. […]
M481 metastatic melanoma cells were implanted in s.c. tissue on right flanks of NSG mice. […] Tumors were measured every 2-3 day with calipers. […]
Transplanting melanoma cells. After sorting, cells were counted and resuspended in staining medium (L15 medium containing 1 mg/ml BSA, 1% penicillin/streptomycin and 10 mM HEPES [pH7.4]) with 25% high protein Matrigel (product 354248; BD Biosciences). […]
Bioluminescence imaging (BLI). Mice were injected with 100 luciferase-GFP+ cells on the right flank and monitored until tumor diameters approached 20 mm, at which point they were imaged along with an uninjected control mouse on an IVIS Imaging System 200 Series (Calliper Life Sciences) using Living Image software. […]

[5] = test system: ERK2; settings: rat adipocytes and L6 myotubes; cited from earlier work
[6] = test system: glycogen synthase; settings: rat adipocytes and L6 myotubes; cited from earlier work
[7] = test system: PKGα; settings: cited from earlier work
[8] = test system: M481, M487 and M610 melanoma cells carrying BRAF V600E mutations; type: in vivo, NSG mice
Experimental: M481, M487 and M610 melanoma cells carrying BRAF V600E mutations were implanted in s.c. tissue on right flanks of NSG mice. When tumors became palpable, mice were randomized to four different treatments. […] Control mice received vehicle only (200 μl 0.5% promethylcellulose, 0.2% Tween80 and 5% DMSO per day). Tumors were measured every 2-3 days with calipers.
In these experiments metastatic melanoma cells were injected subcutaneously in the right flanks of immunocompromised NSG mice. When tumors became palpable, mice were randomized to four different treatments. […] Control mice received vehicle only (200 μl 0.5% promethylcellulose, 0.2% Tween80 and 5% DMSO per day). Tumors were measured every 2-3 days with calipers.

Chain of MSK1 (O75582 whole entry, species assumed): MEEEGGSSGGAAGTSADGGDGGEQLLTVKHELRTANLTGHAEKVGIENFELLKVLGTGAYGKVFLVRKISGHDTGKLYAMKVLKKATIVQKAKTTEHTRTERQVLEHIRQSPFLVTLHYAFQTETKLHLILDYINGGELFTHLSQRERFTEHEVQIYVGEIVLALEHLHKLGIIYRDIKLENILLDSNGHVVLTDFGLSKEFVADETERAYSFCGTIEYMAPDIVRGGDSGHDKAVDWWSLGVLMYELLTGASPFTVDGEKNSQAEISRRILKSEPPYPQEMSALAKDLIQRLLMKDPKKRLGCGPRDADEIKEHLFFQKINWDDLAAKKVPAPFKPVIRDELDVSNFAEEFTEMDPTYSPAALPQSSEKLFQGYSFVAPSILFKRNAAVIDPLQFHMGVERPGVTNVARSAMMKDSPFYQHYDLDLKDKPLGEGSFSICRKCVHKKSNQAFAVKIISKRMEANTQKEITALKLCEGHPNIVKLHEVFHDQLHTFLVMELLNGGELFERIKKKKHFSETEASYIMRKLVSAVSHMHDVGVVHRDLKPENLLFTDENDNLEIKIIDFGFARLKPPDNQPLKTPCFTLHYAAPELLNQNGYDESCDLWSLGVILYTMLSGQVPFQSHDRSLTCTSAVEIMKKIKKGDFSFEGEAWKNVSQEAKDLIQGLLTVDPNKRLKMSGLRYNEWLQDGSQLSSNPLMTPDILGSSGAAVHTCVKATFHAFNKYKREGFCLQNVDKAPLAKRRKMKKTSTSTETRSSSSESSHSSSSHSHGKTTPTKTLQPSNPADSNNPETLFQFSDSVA

## Cn1cc(C2=C(c3cn(CCCSC(=N)N)c4ccccc34)C(=O)NC2=O)c2ccccc21 [RO 31-8220]
[1]
  effect on JNK: Activates
[2]
  effect on MAPK: inhibits
[3]
  IC50: 8 nM
[4]; RO 31-8220 3 mg/kg i.p. alone
  in vivo tumor growth: inhibited the growth of a melanoma as well as the BRAF inhibitor (PLX 4720)
[5]
  effect on ERK2: inhibits
[6]
  effect on glycogen synthase: Activates
[7]
  IC50: 33 nM

## CCCS(=O)(=O)Nc1ccc(F)c(C(=O)c2c[nH]c3ncc(Cl)cc23)c1F [PLX 4720]
[8]; PLX4720 20 mg/kg/day by oral gavage alone
  growth of human melanoma xenografts: slowed the growth

## C[C@H]1O[C@@H](O[C@H]2[C@@H](O)C[C@H](O[C@H]3[C@@H](O)C[C@H](O[C@H]4CC[C@@]5(C)[C@H](CC[C@@H]6[C@@H]5CC[C@]5(C)[C@@H](C7=CC(=O)OC7)CC[C@]65O)C4)O[C@@H]3C)O[C@@H]2C)C[C@H](O)[C@@H]1O [digitoxin]
[8]; digitoxin 0.5 mg/kg/day by oral gavage alone
  growth of human melanoma xenografts: slowed the growth
[4]; digitoxin 0.5 mg/kg i.p. alone, s.c. xenograft, calipers every 2-3 day
  in vivo tumor growth: inhibited the growth of a melanoma better than BRAF inhibitor (PLX 4720)

From patent US9561245B2, “Combination treatments for melanoma” (priority 2012, dated 2017)
